Test results taken from the OPERA property sets (Mansouri et al. 2018).

Structure (SMILES): O=C1c2ccccc2C(=O)N1SC(Cl)(Cl)Cl
- log10 Koc (L/kg): 3.27
- log10 vapour pressure (mmHg): -6.8

Structure (SMILES): c1ccc2c(c1)c1ccccc1c1ccccc21
- boiling point: 425 °C
- log10 biodegradation half-life (days): 2.58
- log10 vapour pressure (mmHg): -7.68
- melting point: 199 °C
- log10 biotransformation half-life (days) (fish): -0.08

Structure (SMILES): C=CCn1c(N)cc(=O)n(CC)c1=O
- melting point: 143 °C

Structure (SMILES): CC(C)CCCBr
- boiling point: 145 °C

Structure (SMILES): COc1cc(CCCO)ccc1O
- melting point: 65 °C

Structure (SMILES): CCC=C(C)CCC
- boiling point: 121 °C

Structure (SMILES): CC(=O)Oc1ccc(C)cc1C
- boiling point: 226 °C

Structure (SMILES): CCCCCCN1CC(C(=O)O)CC1=O (stereo not given)
- melting point: 42.5 °C

Structure (SMILES): C#CC(=C)C
- boiling point: 32 °C
- melting point: -113 °C

Structure (SMILES): CCCCCCCCCCCCCC(O)CC (stereo not given)
- melting point: 50 °C

Structure (SMILES): CCCCCCCCCCCCCCCCCCCCCCCCCCCCO
- melting point: 83.3 °C
- ready biodegradability: readily biodegradable

Structure (SMILES): CC(C)(CO)[N+](=O)[O-]
- melting point: 89.5 °C

Structure (SMILES): CC(O)[C@H]1CC[C@H]2[C@@H]3CC[C@@H]4C[C@@H](O)CC[C@]4(C)[C@H]3CC[C@]12C (stereo not given in full)
- melting point: 244 °C

Structure (SMILES): CC(O)(CCO)CCO
- ready biodegradability: not readily biodegradable

Structure (SMILES): C[C@]12CCC(=O)C[C@@H]1CC[C@@H]1[C@@H]2CC[C@@]2(C)[C@H]1CC[C@]2(C)O
- melting point: 192 °C

Structure (SMILES): O=C(O)CCC(=O)C(=O)O
- melting point: 116 °C

Structure (SMILES): CC(C)(O)CCSc1ccc(S(N)(=O)=O)cc1
- melting point: 140 °C

Structure (SMILES): COc1c(Cl)c(Cl)c([N+](=O)[O-])c(Cl)c1Cl
- melting point: 103 °C

Structure (SMILES): Clc1cc(Cl)c2oc3c(Cl)c(Cl)ccc3c2c1
- log10 vapour pressure (mmHg): -7.48
- melting point: 164 °C

Structure (SMILES): O=C=S
- boiling point: -50 °C
- log10 vapour pressure (mmHg): 3.97
- melting point: -139 °C

Structure (SMILES): Nc1ccc(Cl)cc1N
- boiling point: 229 °C
- melting point: 76 °C

Structure (SMILES): CC1(C)C(=O)[C@@]2(C)CC[C@@H]1C2
- boiling point: 193 °C

Structure (SMILES): c1ccc(CNCCNCc2ccccc2)cc1
- melting point: 26 °C

Structure (SMILES): O=C1C=CC(=O)C=C1
- log10 vapour pressure (mmHg): -1.05
- melting point: 116 °C

Structure (SMILES): CCCCc1c(C)nc(NCC)nc1OS(=O)(=O)N(C)C
- log10 vapour pressure (mmHg): -6.12
- melting point: 50.5 °C

Structure (SMILES): Oc1ccc(C(F)(F)F)cc1
- melting point: 46 °C

Structure (SMILES): Clc1cccc(Br)c1Cl
- boiling point: 245 °C
- melting point: 60 °C

Structure (SMILES): c1ccc(OC2CCCCC2)cc1
- boiling point: 261 °C

Structure (SMILES): C[C@@H]([C@H](O)c1ccccc1)N(C)C
- melting point: 87.5 °C

Structure (SMILES): COc1cc(Cl)c(Cl)c(Cl)c1OC
- melting point: 66 °C

Structure (SMILES): NS(=O)(=O)c1cc2c(cc1Cl)NC(C1CC3C=CC1C3)NS2(=O)=O (stereo not given)
- melting point: 234 °C

Structure (SMILES): CC(c1ccccc1)c1ccc(O)c(C(C)c2ccccc2)c1C(C)c1ccccc1 (stereo not given)
- ready biodegradability: not readily biodegradable

Structure (SMILES): CC(=O)Oc1ccc2c(c1)CC[C@@H]1[C@@H]2CC[C@]2(C)C(=O)[C@H](OC(C)=O)C[C@@H]12
- melting point: 180 °C

Structure (SMILES): FC(F)(F)C(F)(F)C(F)(F)C(F)(F)F
- boiling point: -1.9 °C
- log10 vapour pressure (mmHg): 3.3
- melting point: -128 °C

Structure (SMILES): C/C=C(\C)c1ccccc1
- melting point: -23.5 °C

Structure (SMILES): C=CCCCCCCCCCCC=C
- log10 biodegradation half-life (days): 1.11

Structure (SMILES): Cc1ccc(S(=O)(=O)c2ccc(C)cc2)cc1
- boiling point: 406 °C
- melting point: 159 °C

Structure (SMILES): NCCN1CCNCC1
- boiling point: 220 °C
- ready biodegradability: not readily biodegradable

Structure (SMILES): CCCC(C)CC(C)(C)C (stereo not given)
- boiling point: 148 °C

Structure (SMILES): COc1ccc(O)c(C(C)(C)C)c1
- ready biodegradability: not readily biodegradable

Structure (SMILES): O=CNNC=O
- log10 vapour pressure (mmHg): -6.13
- melting point: 156 °C

Structure (SMILES): CC(=O)c1cccc2ccccc12
- boiling point: 297 °C
- log10 vapour pressure (mmHg): -3.41
- melting point: 34 °C

Structure (SMILES): CON=C(Cc1cccnc1)c1ccc(Cl)cc1Cl
- log10 vapour pressure (mmHg): -4.89

Structure (SMILES): CC(C)CCC[C@@H](C)[C@H]1CC[C@H]2[C@@H]3CC[C@@H]4C[C@H](O)CC[C@]4(C)[C@H]3CC[C@]12C
- melting point: 143 °C

Structure (SMILES): Brc1ccc(Oc2ccc(Br)cc2Br)c(Br)c1
- log10 Koa: 10.5
- log10 vapour pressure (mmHg): -7.15
- logP: 6.81
- log10 BCF (fish): 5.84
- log10 biotransformation half-life (days) (fish): 1.6

Structure (SMILES): C=CCc1ccccc1
- boiling point: 156 °C
- melting point: -40 °C

Structure (SMILES): O=C(O)CCBr
- melting point: 62.5 °C

Structure (SMILES): Cc1cc(N)c2ccccc2n1
- boiling point: 333 °C
- melting point: 169 °C

Structure (SMILES): CCC(N)(CO)CO
- melting point: 37.5 °C
- ready biodegradability: not readily biodegradable

Structure (SMILES): CCOC(=O)C(CC)(CC)C(=O)OCC
- boiling point: 230 °C

Structure (SMILES): CC(=O)CCCC(=O)O
- boiling point: 274 °C
- melting point: 13.5 °C

Structure (SMILES): O=C=Nc1ccccc1[N+](=O)[O-]
- melting point: 41 °C

Structure (SMILES): C1CCC(CCCCCC2CCCCC2)CC1
- boiling point: 325 °C
- melting point: -13.6 °C

Structure (SMILES): Cl/C=C\Cl
- boiling point: 54.4 °C
- log10 Henry constant (atm·m³/mol): -2.17
- log10 Koa: 2.56
- melting point: -64.9 °C

Structure (SMILES): COC(=O)NS(=O)(=O)c1ccc(N)cc1
- log10 Koc (L/kg): 1.6
- melting point: 144 °C

Structure (SMILES): FC(F)(F)Oc1ccccc1
- boiling point: 102 °C
- melting point: -50 °C

Structure (SMILES): Clc1cc(Cl)c(Cl)c(-c2cccc(Cl)c2Cl)c1
- log10 biotransformation half-life (days) (fish): 2.44

Structure (SMILES): O=C1CNC(=O)N1
- melting point: 220 °C
- ready biodegradability: readily biodegradable

Structure (SMILES): OCc1cccc(I)c1
- boiling point: 252 °C

Structure (SMILES): Cc1ccncc1
- boiling point: 145 °C
- log10 Henry constant (atm·m³/mol): -5.22
- log10 vapour pressure (mmHg): 0.761
- melting point: 3.66 °C

Structure (SMILES): CNC(=O)ON=C(CSC)C(C)(C)C
- log10 vapour pressure (mmHg): -3.77
- melting point: 57 °C

Structure (SMILES): [2H]C([2H])([2H])C([2H])([2H])C([2H])([2H])C([2H])([2H])C([2H])([2H])C([2H])([2H])C([2H])([2H])C([2H])([2H])C([2H])([2H])C([2H])([2H])C([2H])([2H])C([2H])([2H])C([2H])([2H])C([2H])([2H])C([2H])([2H])C([2H])([2H])[2H]
- log10 biotransformation half-life (days) (fish): 1.47

Structure (SMILES): COc1ccccc1OC(=O)Oc1ccccc1OC
- melting point: 89 °C

Structure (SMILES): CCCCCCCCCCCCCCCCCCCCCCCCC
- boiling point: 402 °C
- log10 biodegradation half-life (days): 2.08
- log10 vapour pressure (mmHg): -5.82
- melting point: 54 °C
- ready biodegradability: readily biodegradable

Structure (SMILES): COc1ccc2c3c([nH]c2c1)[C@H]1C[C@H]2[C@H](C[C@@H](O)[C@H](OC)[C@H]2C(=O)O)CN1CC3
- melting point: 242 °C

Structure (SMILES): CCOc1ccc(NS(=O)(=O)c2ccc(N)cc2)nn1
- melting point: 183 °C
